Reference: PubChem BioAssay (NCI)
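A five-concentration, 48-hour dose response in 96-well plates underlies each endpoint, interpolated linearly between surrounding concentrations. TGI: concentration producing complete growth inhibition.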

How the values were obtained:
Assay in all cases: inhibition of tumour cell growth, NCI panel, 48 h
BT-549 breast = test system: BT-549 breast
CAKI-1 renal = test system: CAKI-1 renal
RPMI-8226 leukemia = test system: RPMI-8226 leukemia
SR leukemia = test system: SR leukemia
UACC-257 melanoma = test system: UACC-257 melanoma
TK-10 renal = test system: TK-10 renal
DLD-1 colon = test system: DLD-1 colon
HT29 colon = test system: HT29 colon
HOP-18 NSCLC = test system: HOP-18 NSCLC
NCI-H23 lung = test system: NCI-H23 lung
KM20L2 colon = test system: KM20L2 colon

CCC(=O)OCOc1ccc(/C=C2\CCC(CN(C)C)C2=O)cc1 (configuration not stated)
TGI (BT-549 breast): 13.6 µM | TGI (CAKI-1 renal): 11.5 µM | TGI (RPMI-8226 leukemia): > 23.3 µM | TGI (SR leukemia): 9.25 µM | TGI (UACC-257 melanoma): 10.6 µM | TGI (TK-10 renal): 22.2 µM | TGI (DLD-1 colon): 5.54 µM | TGI (HT29 colon): 25.7 µM | TGI (HOP-18 NSCLC): 28.8 µM | TGI (NCI-H23 lung): 15.8 µM | TGI (KM20L2 colon): 32.6 µM

CSc1ccc(N2C(=O)C3c4[nH]c5ccccc5c4C4CCC(C(C)(C)C)CC4C3C2=O)cc1 (configuration not stated)
TGI (CAKI-1 renal): 42.9 µM | TGI (RPMI-8226 leukemia): > 100 µM | TGI (SR leukemia): 23.2 µM | TGI (UACC-257 melanoma): > 100 µM | TGI (TK-10 renal): 40.5 µM | TGI (DLD-1 colon): > 100 µM | TGI (HT29 colon): > 100 µM | TGI (HOP-18 NSCLC): 53.5 µM | TGI (NCI-H23 lung): 31.9 µM | TGI (KM20L2 colon): > 100 µM

C=CCC1(CN(C)C)CC/C(=C\c2ccc3c(c2)OCO3)C1=O (configuration not stated)
TGI (CAKI-1 renal): > 100 µM | TGI (RPMI-8226 leukemia): 59.4 µM | TGI (SR leukemia): > 100 µM | TGI (UACC-257 melanoma): > 100 µM | TGI (TK-10 renal): > 100 µM | TGI (DLD-1 colon): 81.1 µM | TGI (HT29 colon): > 100 µM | TGI (HOP-18 NSCLC): > 100 µM | TGI (NCI-H23 lung): > 100 µM | TGI (KM20L2 colon): > 100 µM

COc1cc(/C=C2\[C@@H]3NC(Cc4c(OC)c(C)c(OC)c(OC)c43)C(=O)N2Cc2ccccc2)c(OC)c(C)c1OC
TGI (CAKI-1 renal): 89 µM | TGI (RPMI-8226 leukemia): 91.8 µM | TGI (SR leukemia): 62.8 µM | TGI (UACC-257 melanoma): > 100 µM | TGI (TK-10 renal): > 100 µM | TGI (DLD-1 colon): > 100 µM | TGI (HT29 colon): 68.1 µM | TGI (HOP-18 NSCLC): > 100 µM | TGI (NCI-H23 lung): > 100 µM | TGI (KM20L2 colon): 96.3 µM

COc1cc2[nH]c3c(c2cc1OC)CCN[C@@]31CC[C@@]2(CC3c4c(cc(OC)c(O)c42)CCN3C)C[C@@H]1OC (some centres not stated)
TGI (BT-549 breast): > 71.3 µM | TGI (CAKI-1 renal): > 79.5 µM | TGI (RPMI-8226 leukemia): > 56.2 µM | TGI (SR leukemia): 36.6 µM | TGI (UACC-257 melanoma): 32.9 µM | TGI (TK-10 renal): 84.5 µM | TGI (DLD-1 colon): > 100 µM | TGI (HT29 colon): > 91.2 µM | TGI (HOP-18 NSCLC): > 81.7 µM | TGI (NCI-H23 lung): > 100 µM | TGI (KM20L2 colon): 86.3 µM
